The source made the active and inactive calls. The rule behind the calls is not given here.

The text below walks through data of ChEMBL document CHEMBL1154538, “Studies on a series of potent, orally bioavailable, 5-HT(1) receptor ligands--part II” (Bioorg Med Chem Lett, 2009).

Tested on in the first data set: not listed separately
As to the kind of experiment: Volume of distribution at steady state rat. The class given is ADME, organism-based. The following applies: in vivo, read-out: Vdss.
With `Cc1ccc2c(OCCN3CCC(Cc4cccc(C5CCN(C)CC5)c4)CC3)cccc2n1`, the Vd was found to be 12.4 L/kg.

As to `Cc1ccc2c(OCCN3CCC(Cc4cccc(N5CCN(C)CC5)c4)CC3)cccc2n1`, the Vd worked out at 4.4 L/kg.

Tested on in a further data set: not listed separately
As to the kind of experiment: Clearance in rat blood at 1 mg/kg, iv.
Conditions: not given
It is filed as ADME, organism-based. Also on record: dose 1 mg/kg, route intravenous.
`Cc1ccc2c(OCCN3CCC(Cc4cccc(C5CCN(C)CC5)c4)CC3)cccc2n1` displayed a clearance of 14 mL/min/kg.

In turn, `Cc1ccc2c(OCCN3CCC(Cc4cccc(N5CCN(C)CC5)c4)CC3)cccc2n1` registered a clearance of 46 mL/min/kg.

The target in a further data set is T1, 5-hydroxytryptamine receptor 1D (Homo sapiens, UniProt P28221). Nature of the data set: Intrinsic activity at human 5HT1D receptor expressed in CHO cells by [35S]GTPgammaS binding assay.
T1 sequence (P28221 whole entry): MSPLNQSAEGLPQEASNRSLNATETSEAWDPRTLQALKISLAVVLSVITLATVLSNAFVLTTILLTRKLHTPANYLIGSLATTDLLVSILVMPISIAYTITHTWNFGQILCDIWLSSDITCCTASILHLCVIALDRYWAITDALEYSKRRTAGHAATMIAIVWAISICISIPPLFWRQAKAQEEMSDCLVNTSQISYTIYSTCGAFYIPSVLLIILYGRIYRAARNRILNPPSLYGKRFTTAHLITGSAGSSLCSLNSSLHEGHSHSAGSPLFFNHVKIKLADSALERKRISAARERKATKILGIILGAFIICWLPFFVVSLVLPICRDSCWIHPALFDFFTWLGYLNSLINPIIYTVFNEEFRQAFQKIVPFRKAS
Conditions: not given
The class given is functional, cell-based.
Take `Cc1ccc2c(OCCN3CCC(Cc4cccc(N5CCOCC5)c4)CC3)cccc2n1`: the Intrinsic activity was determined as 0.6.

`Cc1ccc2c(OCCN3CCC(Cc4cccc(N5CCCCC5)c4)CC3)cccc2n1`: the Intrinsic activity was found to be 0.7.

`Cc1ccc2c(OCCN3CCC(Cc4cccc(N5C[C@@H](C)N[C@@H](C)C5)c4)CC3)cccc2n1` registered an Intrinsic activity of 0.5.

Compound `Cc1ccc2c(OCCN3CCC(Cc4cccc(NC(=O)CN(C)C)c4)CC3)cccc2n1` registered an Intrinsic activity of 0.4.

On to `Cc1ccc2c(OCCN3CCC(Cc4cccc(N5CCN[C@@H](C)C5)c4)CC3)cccc2n1`, for which the Intrinsic activity came to 0.5.

For `Cc1ccc2c(OCCN3CCC(Cc4cccc(C5CCN(C)CC5)c4)CC3)cccc2n1`, the Intrinsic activity is 0.4.

In the case of `Cc1ccc2c(OCCN3CCC(Cc4cccc(N5CCN(C)CC5)c4)CC3)cccc2n1`, the Intrinsic activity was determined as 0.4.

For the compound `Cc1ccc2c(OCCN3CCC(Cc4cccc(N5CCN[C@H](C)C5)c4)CC3)cccc2n1`, the Intrinsic activity stood at 0.5.

As for `Cc1ccc2c(OCCN3CCC(Cc4cccc(NS(C)(=O)=O)c4)CC3)cccc2n1`, the Intrinsic activity worked out at 0.

`Cc1ccc2c(OCCN3CCC(Cc4cccc(N5CCCN(C)CC5)c4)CC3)cccc2n1` displayed an Intrinsic activity of 0.5.

For a further data set, the target named is T1, 5-hydroxytryptamine receptor 1D. As to the kind of experiment: Displacement of 3H]5HT from human 5HT1D receptor expressed in CHO cells. The class given is cell-based.
Conditions: not given
In turn, `Cc1ccc2c(OCCN3CCC(Cc4cccc(N5CCOCC5)c4)CC3)cccc2n1` gave a Ki of 2.51 nM.

In turn, `Cc1ccc2c(OCCN3CCC(Cc4cccc(N5CCCCC5)c4)CC3)cccc2n1` showed a Ki of 1 nM.

Consider `Cc1ccc2c(OCCN3CCC(Cc4cccc(N5C[C@@H](C)N[C@@H](C)C5)c4)CC3)cccc2n1`, for which the affinity corresponds to a Ki of 0.794 nM.

For the compound `Cc1ccc2c(OCCN3CCC(Cc4cccc(-c5ccoc5)c4)CC3)cccc2n1`, the affinity, expressed as Ki, was 6.31 nM.

For the compound `Cc1ccc2c(OCCN3CCC(Cc4cccc(N5CCN[C@@H](C)C5)c4)CC3)cccc2n1`, the Ki is 1 nM.

Compound `Cc1ccc2c(OCCN3CCC(Cc4cccc(C5CCN(C)CC5)c4)CC3)cccc2n1` had an inhibition constant Ki of 0.2 nM.

`Cc1ccc2c(OCCN3CCC(Cc4cccc(N5CCN(C)CC5)c4)CC3)cccc2n1` showed an inhibitory constant (Ki) of 0.501 nM.

Turning to `Cc1ccc2c(OCCN3CCC(Cc4cccc(N5CCN[C@H](C)C5)c4)CC3)cccc2n1`, the affinity, expressed as Ki, was 0.631 nM.

The compound `Cc1ccc2c(OCCN3CCC(Cc4cccc(N5CCCN(C)CC5)c4)CC3)cccc2n1` gave a Ki of 0.631 nM.

A further data set deals with T2, 5-hydroxytryptamine receptor 1A (Homo sapiens) (UniProt P08908).
T2 sequence (whole entry): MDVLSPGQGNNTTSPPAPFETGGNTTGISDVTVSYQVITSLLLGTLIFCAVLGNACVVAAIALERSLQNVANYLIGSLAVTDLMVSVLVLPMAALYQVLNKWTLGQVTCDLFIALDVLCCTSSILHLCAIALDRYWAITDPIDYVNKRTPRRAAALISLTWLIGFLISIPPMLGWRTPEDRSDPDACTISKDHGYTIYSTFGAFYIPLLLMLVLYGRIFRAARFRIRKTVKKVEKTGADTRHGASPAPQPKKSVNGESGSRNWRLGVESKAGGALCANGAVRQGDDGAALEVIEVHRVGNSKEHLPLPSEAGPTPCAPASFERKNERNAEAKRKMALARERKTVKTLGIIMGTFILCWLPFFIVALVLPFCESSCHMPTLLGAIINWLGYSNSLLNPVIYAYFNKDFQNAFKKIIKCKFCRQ
Nature of the data set: Intrinsic activity at human 5HT1A receptor expressed in CHO cells by [35S]GTPgammaS binding assay. It is filed as functional, cell-based.
Conditions: not given
Compound `Cc1ccc2c(OCCN3CCC(Cc4cccc(N5CCOCC5)c4)CC3)cccc2n1` registered an Intrinsic activity of 0.

As to `Cc1ccc2c(OCCN3CCC(Cc4cccc(N5CCCCC5)c4)CC3)cccc2n1`, the Intrinsic activity came out at 0.

As to `Cc1ccc2c(OCCN3CCC(Cc4cccc(N5C[C@@H](C)N[C@@H](C)C5)c4)CC3)cccc2n1`, the Intrinsic activity stood at 0.

`Cc1ccc2c(OCCN3CCC(Cc4cccc(N5CCN[C@@H](C)C5)c4)CC3)cccc2n1` came in with an Intrinsic activity of 0.

The compound `Cc1ccc2c(OCCN3CCC(Cc4cccc(N5CCN(C)CC5)c4)CC3)cccc2n1` returned an Intrinsic activity of 0.

In the case of `Cc1ccc2c(OCCN3CCC(Cc4cccc(N5CCN[C@H](C)C5)c4)CC3)cccc2n1`, the Intrinsic activity came out at 0.

The compound `Cc1ccc2c(OCCN3CCC(Cc4cccc(NS(C)(=O)=O)c4)CC3)cccc2n1` yielded an Intrinsic activity of 0.

The compound `Cc1ccc2c(OCCN3CCC(Cc4cccc(N5CCCN(C)CC5)c4)CC3)cccc2n1` returned an Intrinsic activity of 0.

Tested on in the next data set: not listed separately
Nature of the data set: Cmax in rat brain at 3 mg/kg, po. The class given is ADME, organism-based.
Conditions: not given
Also noted: dose 3 mg/kg, route oral.
The compound `Cc1ccc2c(OCCN3CCC(Cc4cccc(C5CCN(C)CC5)c4)CC3)cccc2n1` came in with a Cmax of 34 ng/g.

In turn, `Cc1ccc2c(OCCN3CCC(Cc4cccc(N5CCN(C)CC5)c4)CC3)cccc2n1` returned a Cmax of 85 ng/g.

The next data set deals with T3, 5-hydroxytryptamine receptor 1B (Homo sapiens, UniProt P28222). As to the kind of experiment: Intrinsic activity at human 5HT1B receptor expressed in CHO cells by [35S]GTPgammaS binding assay. The class given is functional, cell-based.
T3 sequence (P28222 whole entry): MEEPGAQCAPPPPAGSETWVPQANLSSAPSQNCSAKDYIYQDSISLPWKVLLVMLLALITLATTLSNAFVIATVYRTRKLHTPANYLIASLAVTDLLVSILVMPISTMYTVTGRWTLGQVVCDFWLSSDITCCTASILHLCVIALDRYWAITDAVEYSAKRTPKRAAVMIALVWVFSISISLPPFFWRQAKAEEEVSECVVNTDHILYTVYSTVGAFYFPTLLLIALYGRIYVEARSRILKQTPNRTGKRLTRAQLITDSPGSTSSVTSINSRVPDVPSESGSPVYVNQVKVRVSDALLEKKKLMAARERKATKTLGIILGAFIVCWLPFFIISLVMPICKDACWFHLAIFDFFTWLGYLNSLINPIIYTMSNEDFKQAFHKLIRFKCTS
Conditions: not given
Regarding `Cc1ccc2c(OCCN3CCC(Cc4cccc(N5CCOCC5)c4)CC3)cccc2n1`, the Intrinsic activity worked out at 0.4.

In turn, `Cc1ccc2c(OCCN3CCC(Cc4cccc(N5CCCCC5)c4)CC3)cccc2n1` yielded an Intrinsic activity of 0.6.

Compound `Cc1ccc2c(OCCN3CCC(Cc4cccc(N5C[C@@H](C)N[C@@H](C)C5)c4)CC3)cccc2n1` yielded an Intrinsic activity of 0.3.

As for `Cc1ccc2c(OCCN3CCC(Cc4cccc(NC(=O)CN(C)C)c4)CC3)cccc2n1`, the Intrinsic activity was 0.2.

Compound `Cc1ccc2c(OCCN3CCC(Cc4cccc(N5CCN[C@@H](C)C5)c4)CC3)cccc2n1` registered an Intrinsic activity of 0.3.

Take `Cc1ccc2c(OCCN3CCC(Cc4cccc(C5CCN(C)CC5)c4)CC3)cccc2n1`: the Intrinsic activity stood at 0.3.

As to `Cc1ccc2c(OCCN3CCC(Cc4cccc(N5CCN(C)CC5)c4)CC3)cccc2n1`, the Intrinsic activity came out at 0.3.

Regarding `Cc1ccc2c(OCCN3CCC(Cc4cccc(N5CCN[C@H](C)C5)c4)CC3)cccc2n1`, the Intrinsic activity came to 0.3.

As for `Cc1ccc2c(OCCN3CCC(Cc4cccc(NS(C)(=O)=O)c4)CC3)cccc2n1`, the Intrinsic activity was determined as 0.3.

Compound `Cc1ccc2c(OCCN3CCC(Cc4cccc(N5CCCN(C)CC5)c4)CC3)cccc2n1` returned an Intrinsic activity of 0.3.

Tested on in a further data set: not listed separately
As to the kind of experiment: Metabolic stability in rat microsomes assessed as intrinsic clearance. The class given is ADME, Microsome.
Conditions: not given
In the case of `Cc1ccc2c(OCCN3CCC(Cc4cccc(N5CCCCC5)c4)CC3)cccc2n1`, the CLint scaled was 6.2 mL/min/kg.

Consider `Cc1ccc2c(OCCN3CCC(Cc4cccc(C5CCN(C)CC5)c4)CC3)cccc2n1`, for which the CLint scaled is 2 mL/min/kg.

Turning to `Cc1ccc2c(OCCN3CCC(Cc4cccc(N5CCN(C)CC5)c4)CC3)cccc2n1`, the CLint scaled is 2.9 mL/min/kg.

Regarding `Cc1ccc2c(OCCN3CCC(Cc4cccc(N5CCCN(C)CC5)c4)CC3)cccc2n1`, the CLint scaled amounted to 26 mL/min/kg.

A further data set has as its target T2, 5-hydroxytryptamine receptor 1A (Homo sapiens). Nature of the data set: Inverse agonist activity at human 5HT1A receptor expressed in CHO cells.
Conditions: not given
It is filed as functional, cell-based.
As for `Cc1ccc2c(OCCN3CCC(Cc4cccc(NC(=O)CN(C)C)c4)CC3)cccc2n1`, the result was Active.

Consider `Cc1ccc2c(OCCN3CCC(Cc4cccc(C5CCN(C)CC5)c4)CC3)cccc2n1`, for which the result was Active.

Tested on in another data set: not listed separately
As to the kind of experiment: Ratio of drug level in brain to blood in rat at 3 mg/kg, po. It is filed as ADME, organism-based. Also on record: dose 3 mg/kg, route oral. Particulars: read-out: BBR.
Consider `Cc1ccc2c(OCCN3CCC(Cc4cccc(C5CCN(C)CC5)c4)CC3)cccc2n1`, for which the Kp turned out to be 1.3.

On to `Cc1ccc2c(OCCN3CCC(Cc4cccc(N5CCN(C)CC5)c4)CC3)cccc2n1`, for which the Kp is 18.

For the next data set, the target named is T4, 5-hydroxytryptamine receptor 1A (Homo sapiens, UniProt P08908).
T4 sequence (P08908 whole entry): T2 sequence (whole entry)
Nature of the data set: Displacement of [125I]WAY100635 from human 5HT1A receptor expressed in CHO cells.
Conditions: not given
The class given is cell-based.
Compound `Cc1ccc2c(OCCN3CCC(Cc4cccc(N5CCOCC5)c4)CC3)cccc2n1` had a Ki of 5.01 nM.

`Cc1ccc2c(OCCN3CCC(Cc4cccc(N5CCCCC5)c4)CC3)cccc2n1` gave a Ki of 3.98 nM.

Regarding `Cc1ccc2c(OCCN3CCC(Cc4cccc(N5C[C@@H](C)N[C@@H](C)C5)c4)CC3)cccc2n1`, the Ki was 2 nM.

Take `Cc1ccc2c(OCCN3CCC(Cc4cccc(-c5ccoc5)c4)CC3)cccc2n1`: the affinity corresponds to a Ki of 31.6 nM.

`Cc1ccc2c(OCCN3CCC(Cc4cccc(N5CCN[C@@H](C)C5)c4)CC3)cccc2n1`: the Ki is 3.98 nM.

On to `Cc1ccc2c(OCCN3CCC(Cc4cccc(C5CCN(C)CC5)c4)CC3)cccc2n1`, for which the Ki was 3.16 nM.

On to `Cc1ccc2c(OCCN3CCC(Cc4cccc(N5CCN(C)CC5)c4)CC3)cccc2n1`, for which affinity was put at a Ki of 1 nM.

The compound `Cc1ccc2c(OCCN3CCC(Cc4cccc(N5CCN[C@H](C)C5)c4)CC3)cccc2n1` gave a Ki of 2.51 nM.

Turning to `Cc1ccc2c(OCCN3CCC(Cc4cccc(N5CCCN(C)CC5)c4)CC3)cccc2n1`, the Ki was 2.51 nM.

Tested on in the next data set: not listed separately
Nature of the data set: Metabolic stability in human microsomes assessed as intrinsic clearance.
Conditions: not given
It is filed as ADME, Microsome.
With `Cc1ccc2c(OCCN3CCC(Cc4cccc(C5CCN(C)CC5)c4)CC3)cccc2n1`, the CLint scaled is less than 0.5 mL/min/kg.

Take `Cc1ccc2c(OCCN3CCC(Cc4cccc(N5CCN(C)CC5)c4)CC3)cccc2n1`: the intrinsic metabolic clearance (CLint scaled) turned out to be 1.6 mL/min/kg.

A further data set concerns the target T3, 5-hydroxytryptamine receptor 1B. Nature of the data set: Displacement of [3H]5HT from human 5HT1B receptor expressed in CHO cells. The class given is cell-based.
Conditions: not given
The compound `Cc1ccc2c(OCCN3CCC(Cc4cccc(N5CCOCC5)c4)CC3)cccc2n1` showed a Ki of 126 nM.

In the case of `Cc1ccc2c(OCCN3CCC(Cc4cccc(N5CCCCC5)c4)CC3)cccc2n1`, the affinity corresponds to a Ki of 2 nM.

`Cc1ccc2c(OCCN3CCC(Cc4cccc(N5C[C@@H](C)N[C@@H](C)C5)c4)CC3)cccc2n1` gave a Ki of 3.98 nM.

For the compound `Cc1ccc2c(OCCN3CCC(Cc4cccc(-c5ccoc5)c4)CC3)cccc2n1`, the affinity corresponds to a Ki of 39.8 nM.

On to `Cc1ccc2c(OCCN3CCC(Cc4cccc(N5CCN[C@@H](C)C5)c4)CC3)cccc2n1`, for which the Ki is 15.8 nM.

For `Cc1ccc2c(OCCN3CCC(Cc4cccc(C5CCN(C)CC5)c4)CC3)cccc2n1`, the inhibitory constant (Ki) is 5.01 nM.

As for `Cc1ccc2c(OCCN3CCC(Cc4cccc(N5CCN(C)CC5)c4)CC3)cccc2n1`, affinity was put at a Ki of 6.31 nM.

Turning to `Cc1ccc2c(OCCN3CCC(Cc4cccc(N5CCN[C@H](C)C5)c4)CC3)cccc2n1`, the Ki was 2 nM.

`Cc1ccc2c(OCCN3CCC(Cc4cccc(N5CCCN(C)CC5)c4)CC3)cccc2n1` showed a Ki of 7.94 nM.

Tested on in the next data set: not listed separately
Nature of the data set: Half life in rat at 1 mg/kg, iv. It is filed as ADME, organism-based. Also noted: dose 1 mg/kg, route intravenous. Particulars: in vivo.
In turn, `Cc1ccc2c(OCCN3CCC(Cc4cccc(C5CCN(C)CC5)c4)CC3)cccc2n1` had a half-life of 12 h.

Regarding `Cc1ccc2c(OCCN3CCC(Cc4cccc(N5CCN(C)CC5)c4)CC3)cccc2n1`, the half-life was 1.3 h.
